Experimental data as given in the supplement of paper PMC11061612.

Experiments:
AZD5153 = compound: COc1nnc2ccc(N3CCC(c4ccc(OCCN5CCN(C)C(=O)[C@H]5C)cc4)CC3)nn12 [AZD5153]; details: max 1 µM
Procedure, shortened: (§1)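 After 24 hours at 37°C and 5% CO2 in 1536-well plates holding 7.5 μl of DMEM/F12 or RPMI with 10% FBS, cancer cell lines were dosed for 72 hours, with final DMSO typically 0.2%. Viability came from CellTiter-Glo 2.0 luminescence, scaled between the means of blank wells and DMSO wells. A non-linear mixed effects model fitted a two-parameter logistic curve to each dose response to give the single-agent IC50.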

AZD8186 = compound: C[C@@H](Nc1cc(F)cc(F)c1)c1cc(C(=O)N(C)C)cc2c(=O)cc(N3CCOCC3)oc12 [AZD8186]; details: max 10 µM
Procedure, shortened: as §1

Palbociclib = compound: CC(=O)c1c(C)c2cnc(Nc3ccc(N4CCNCC4)cn3)nc2n(C2CCCC2)c1=O [Palbociclib]; details: max 10 µM
Procedure, shortened: as §1

Alisertib = compound: COc1cc(Nc2ncc3c(n2)-c2ccc(Cl)cc2C(c2c(F)cccc2OC)=NC3)ccc1C(=O)O [Alisertib]; details: max 10 µM
Procedure, shortened: as §1

Dasatinib = compound: CC1=C(C(=CC=C1)Cl)NC(=O)C2=CN=C(S2)NC3=CC(=NC(=N3)C)N4CCN(CC4)CCO [Dasatinib]; details: max 2 µM
Procedure, shortened: as §1

Olaparib = compound: O=C(c1cc(Cc2n[nH]c(=O)c3ccccc23)ccc1F)N1CCN(C(=O)C2CC2)CC1 [Olaparib]; details: max 10 µM
Procedure, shortened: as §1

AZD4320 = compound: CN(CC[C@H](CSC1=CC=CC=C1)NC2=C(C=C(C=C2)S(=O)(=O)NC(=O)C3=CC=C(C=C3)N4CCC(CC4)[C@H](C5=CC=CC=C5C6=CC=C(C=C6)Cl)O)S(=O)(=O)C(F)(F)F)CCO [AZD4320]; details: max 1 µM
Procedure, shortened: as §1

AZD6738 = compound: C[C@@H]1COCCN1C2=NC(=NC(=C2)C3(CC3)[S@](=N)(=O)C)C4=C5C=CNC5=NC=C4 [AZD6738]; details: max 10 µM
Procedure, shortened: as §1

Prexasertib = compound: COc1cccc(OCCCN)c1-c1cc(Nc2cnc(C#N)cn2)n[nH]1 [Prexasertib]; details: max 1 µM
Procedure, shortened: as §1

Trametinib = compound: CC(=O)Nc1cccc(-n2c(=O)n(C3CC3)c(=O)c3c(Nc4ccc(I)cc4F)n(C)c(=O)c(C)c32)c1 [Trametinib]; details: max 1 µM
Procedure, shortened: as §1

Gefitinib = compound: COc1cc2ncnc(Nc3ccc(F)c(Cl)c3)c2cc1OCCCN1CCOCC1 [Gefitinib]; details: max 10 µM
Procedure, shortened: as §1

AZD5991 = compound: Cc1c2c(nn1C)CSCc1cc(n(C)n1)CSc1cc(c3ccccc3c1)OCCCc1c(C(=O)O)n(C)c3c-2c(Cl)ccc13 [AZD5991]; details: max 1 µM
Procedure, shortened: as §1

Carboplatin = compound: C1CC(C1)(C(=O)[O-])C(=O)[O-].N.N.[Pt+2] [Carboplatin]; details: max 10 µM
Procedure, shortened: as §1

AZD0156 = compound: CN(C)CCCOc1ccc(-c2ccc3ncc4c(c3c2)n(C2CCOCC2)c(=O)n4C)cn1 [AZD0156]; details: max 3 µM
Procedure, shortened: as §1

Savolitinib = compound: C[C@@H](c1ccc2nccn2c1)n1nnc2ncc(-c3cnn(C)c3)nc21 [Savolitinib]; details: max 1 µM
Procedure, shortened: as §1

SG3199 = compound: CC1=CN2[C@@H](C1)C=NC3=CC(=C(C=C3C2=O)OC)OCCCCCOC4=C(C=C5C(=C4)N=C[C@@H]6CC(=CN6C5=O)C)OC [SG3199]; details: max 0.001 µM
Procedure, shortened: as §1

AZD1390 = compound: CC(C)n1c(=O)n(C)c2cnc3cc(F)c(-c4ccc(OCCCN5CCCCC5)nc4)cc3c21 [AZD1390]; details: max 0.3 µM
Procedure, shortened: as §1

SN-38 = compound: CCc1c2c(nc3ccc(O)cc13)-c1cc3c(c(=O)n1C2)COC(=O)[C@]3(O)CC [SN-38]; details: max 0.3 µM
Procedure, shortened: as §1

Doxorubicin = compound: COc1cccc2c1C(=O)c1c(O)c3c(c(O)c1C2=O)C[C@@](O)(C(=O)CO)C[C@@H]3O[C@H]1C[C@H](N)[C@H](O)[C@H](C)O1 [Doxorubicin]; details: max 1 µM
Procedure, shortened: as §1

MK-2206 = compound: NC1(c2ccc(-c3nc4ccn5c(=O)[nH]nc5c4cc3-c3ccccc3)cc2)CCC1 [MK-2206]; details: max 10 µM
Procedure, shortened: as §1

Crizotinib = compound: C[C@@H](Oc1cc(-c2cnn(C3CCNCC3)c2)cnc1N)c1c(Cl)ccc(F)c1Cl [Crizotinib]; details: max 10 µM
Procedure, shortened: as §1

AZD1775 = compound: C=CCn1c(=O)c2cnc(Nc3ccc(N4CCN(C)CC4)cc3)nc2n1-c1cccc(C(C)(C)O)n1 [AZD1775]; details: max 3 µM
Procedure, shortened: as §1

Gemcitabine = compound: Nc1ccn([C@@H]2O[C@H](CO)[C@@H](O)C2(F)F)c(=O)n1 [Gemcitabine]; details: max 0.3 µM
Procedure, shortened: as §1

AZD2811 = compound: CCN(CCO)CCCOc1ccc2c(Nc3cc(CC(=O)Nc4cccc(F)c4)[nH]n3)ncnc2c1 [AZD2811]; details: max 1 µM
Procedure, shortened: as §1

Taselisib = compound: Cc1nc(-c2cn3c(n2)-c2ccc(-c4cnn(C(C)(C)C(N)=O)c4)cc2OCC3)n(C(C)C)n1 [Taselisib]; details: max 10 µM
Procedure, shortened: as §1

5-Fluorouracil = compound: O=c1[nH]cc(F)c(=O)[nH]1 [5-Fluorouracil]; details: max 20 µM
Procedure, shortened: as §1

AZD5363 = compound: C1CN(CCC1(C(=O)N[C@@H](CCO)C2=CC=C(C=C2)Cl)N)C3=NC=NC4=C3C=CN4 [AZD5363]; details: max 10 µM
Procedure, shortened: as §1

SRA737 = compound: N#Cc1cnc(Nc2cc(NC[C@H]3CNCCO3)c(C(F)(F)F)cn2)cn1 [SRA737]; details: max 10 µM
Procedure, shortened: as §1

Selumetinib = compound: Cn1cnc2c(F)c(Nc3ccc(Br)cc3Cl)c(C(=O)NOCCO)cc21 [Selumetinib]; details: max 10 µM
Procedure, shortened: as §1

Lapatinib = compound: CS(=O)(=O)CCNCc1ccc(-c2ccc3ncnc(Nc4ccc(OCc5cccc(F)c5)c(Cl)c4)c3c2)o1 [Lapatinib]; details: max 10 µM
Procedure, shortened: as §1

Venetoclax = compound: CC1(C)CCC(CN2CCN(c3ccc(C(=O)NS(=O)(=O)c4ccc(NCC5CCOCC5)c([N+](=O)[O-])c4)c(Oc4cnc5[nH]ccc5c4)c3)CC2)=C(c2ccc(Cl)cc2)C1 [Venetoclax]; details: max 1 µM
Procedure, shortened: as §1

Paclitaxel = compound: CC(=O)O[C@H]1C(=O)[C@@]2(C)[C@H]([C@H](OC(=O)c3ccccc3)[C@]3(O)C[C@H](OC(=O)[C@H](O)[C@@H](NC(=O)c4ccccc4)c4ccccc4)C(C)=C1C3(C)C)[C@]1(OC(C)=O)CO[C@@H]1C[C@@H]2O [Paclitaxel]; details: max 3 µM
Procedure, shortened: as §1

Etoposide = compound: COc1cc([C@@H]2c3cc4c(cc3[C@@H](O[C@@H]3O[C@@H]5CO[C@@H](C)O[C@H]5[C@H](O)[C@H]3O)[C@H]3COC(=O)[C@H]23)OCO4)cc(OC)c1O [Etoposide]; details: max 10 µM
Procedure, shortened: as §1

[1] = compound: O=C(Nc1ccc2[nH]nc(-c3ccncc3)c2c1)[C@@H]1CCN(CC(=O)N2CCN(c3ccc(-c4ncccn4)cc3)CC2)C1; details: max 5 µM
Procedure, shortened: as §1

AZD7648 = compound: Cc1cc2ncnn2cc1Nc1ncc2c(n1)n(C1CCOCC1)c(=O)n2C [AZD7648]; details: max 10 µM
Procedure, shortened: as §1

Row | Cell Line | IC50, cell viability 72 h (AZD5153) [µM] | IC50, cell viability 72 h (AZD8186) [µM] | IC50, cell viability 72 h (Palbociclib) [µM] | IC50, cell viability 72 h (Alisertib) [µM] | IC50, cell viability 72 h (Dasatinib) [µM] | IC50, cell viability 72 h (Olaparib) [µM] | IC50, cell viability 72 h (AZD4320) [µM] | IC50, cell viability 72 h (AZD6738) [µM] | IC50, cell viability 72 h (Prexasertib) [µM] | IC50, cell viability 72 h (Trametinib) [µM] | IC50, cell viability 72 h (Gefitinib) [µM] | IC50, cell viability 72 h (AZD5991) [µM] | IC50, cell viability 72 h (Carboplatin) [µM] | IC50, cell viability 72 h (AZD0156) [µM] | IC50, cell viability 72 h (Savolitinib) [µM] | IC50, cell viability 72 h (SG3199) [µM] | IC50, cell viability 72 h (AZD1390) [µM] | IC50, cell viability 72 h (SN-38) [µM] | IC50, cell viability 72 h (Doxorubicin) [µM] | IC50, cell viability 72 h (MK-2206) [µM] | IC50, cell viability 72 h (Crizotinib) [µM] | IC50, cell viability 72 h (AZD1775) [µM] | IC50, cell viability 72 h (Gemcitabine) [µM] | IC50, cell viability 72 h (AZD2811) [µM] | IC50, cell viability 72 h (Taselisib) [µM] | IC50, cell viability 72 h (5-Fluorouracil) [µM] | IC50, cell viability 72 h (AZD5363) [µM] | IC50, cell viability 72 h (SRA737) [µM] | IC50, cell viability 72 h (Selumetinib) [µM] | IC50, cell viability 72 h (Lapatinib) [µM] | IC50, cell viability 72 h (Venetoclax) [µM] | IC50, cell viability 72 h (Paclitaxel) [µM] | IC50, cell viability 72 h (Etoposide) [µM] | IC50, cell viability 72 h [1] [µM] | IC50, cell viability 72 h (AZD7648) [µM]
1 | HCC70 (Breast Carcinoma) | > 1 | 2.02 | > 10 | > 10 | > 2 | > 10 | > 1 | 3 | 0.0297 | > 1 | > 10 | 0.201 | > 10 | > 3 | > 1 | > 0.001 | > 0.3 | > 0.3 | > 1 | 1.92 | > 10 | 1 | > 0.3 | 0.224 | 4.26 | > 20 | 2 | 5.46 | > 10 | > 10 | > 1 | 0.143 | > 10 | > 5 | > 10
2 | EW-7 (Ewing's Sarcoma) | > 1 | > 10 | > 10 | 2.15 | > 2 | > 10 | 0.943 | 1.16 | 0.00528 | > 1 | > 10 | > 1 | > 10 | > 3 | > 1 | > 0.001 | > 0.3 | 0.00552 | 0.101 | 5.63 | 3.46 | 0.308 | 0.0047 | > 1 | 0.155 | > 20 | 4.5 | 0.908 | > 10 | > 10 | > 1 | 0.0408 | 0.253 | > 5 | 9.44
3 | NCI-H841 (Small Cell Lung Carcinoma) | > 1 | > 10 | > 10 |  | > 2 | > 10 | > 1 | > 10 |  | > 1 | > 10 | > 1 | > 10 | > 3 | > 1 |  | > 0.3 | > 0.3 |  | > 10 | > 10 | 1.69 | > 0.3 | > 1 | > 10 | > 20 | > 10 | > 10 | > 10 | > 10 | > 1 | 0.0266 | > 10 | > 5 | > 10
